Target: human PD-L1 (Homo sapiens (Human), UniProt Q9NZQ7)
Assay: T cell activation luciferase reporter cell culture system (T Cell Activation Assay)
Format: cell-based
Settings: luciferase reporter assay; PD-L1 aAPC/CHO-K1 cells with PD-1 effector Jurkat T cells

Chain of human PD-L1 (Q9NZQ7 19-290): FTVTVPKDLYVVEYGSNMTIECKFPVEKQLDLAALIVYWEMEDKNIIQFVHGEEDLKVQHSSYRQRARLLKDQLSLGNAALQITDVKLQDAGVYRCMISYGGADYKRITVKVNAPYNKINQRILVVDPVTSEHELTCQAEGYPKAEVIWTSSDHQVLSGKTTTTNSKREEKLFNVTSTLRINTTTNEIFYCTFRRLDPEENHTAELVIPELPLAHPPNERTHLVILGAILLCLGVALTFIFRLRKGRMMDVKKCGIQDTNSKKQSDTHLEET

COc1nc(-c2cccc(-c3ccnc(-c4ccc(CNC5CCN(C)C(=O)C5)c(OC(F)F)c4)c3Cl)c2Cl)ccc1CNC1CCN(C)C(=O)C1 (racemic) [Example 619, 4-(((6-(2-Chloro-3-(3-chloro-2-(3-(difluoromethoxy)-4-(((1-methyl-2-oxopiperidin-4-yl)amino)methyl)phenyl)pyridin-4-yl)phenyl)-2-methoxypyridin-3-yl)methyl)amino)-1-methylpiperidin-2-one]
EC50: 0.0669 µM

COc1cc(-c2nccc(-c3cccc(-c4ccn5c(=O)c(CNC[C@@H]6CCC(=O)N6)cnc5c4)c3Cl)c2Cl)ccc1CNC[C@@H]1CCC(=O)N1 [Cmpd 1, 8-(2-chloro-3-(3-chloro-2-(3-methoxy-4-(((((S)-5-oxopyrrolidin-2-yl)methyl)amino)methyl)phenyl)pyridin-4-yl)phenyl)-3-(((((S)-5-oxopyrrolidin-2-yl)methyl)amino)methyl)-4H-pyrido[1,2-a]pyrimidin-4-one]
EC50: 0.3 µM

COc1nc(-c2cccc(-c3ccnc(-c4ccn5c(=O)c(CNC[C@@H]6CCC(=O)N6)cnc5c4)c3Cl)c2Cl)ccc1CNC[C@@H]1CCC(=O)N1 [Cmpd 2, 8-(3-chloro-4-(2-chloro-3-(6-methoxy-5-(((((S)-5-oxopyrrolidin-2-yl)methyl)amino)methyl)pyridin-2-yl)phenyl)pyridin-2-yl)-3-(((((S)-5-oxopyrrolidin-2-yl)methyl)amino)methyl)-4H-pyrido[1,2-a]pyrimidin-4-one]
EC50: 0.0876 µM

COc1nc(-c2cccc(-c3ccnc(-c4ccc5c(c4)N(C)CCNC5)c3Cl)c2Cl)ccc1CNC[C@@H]1CCC(=O)N1 [Cmpd 3, (S)-5-((((6-(2-chloro-3-(3-chloro-2-(1-methyl-2,3,4,5-tetrahydro-1H-benzo[e][1,4]diazepin-8-yl)pyridin-4-yl)phenyl)-2-methoxypyridin-3-yl)methyl)amino)methyl)pyrrolidin-2-one]
EC50: 0.0429 µM

COc1nc(-c2cccc(-c3ccnc(-c4ccc5c(c4)N(C)CCNC5)c3Cl)c2Cl)ccc1CNCC(C)NC(C)=O (stereo not shown) [Cmpd 5, N-(1-(((6-(2-chloro-3-(3-chloro-2-(1-methyl-2,3,4,5-tetrahydro-1H-benzo[e][1,4]diazepin-8-yl)pyridin-4-yl)phenyl)-2-methoxypyridin-3-yl)methyl)amino)propan-2-yl)acetamide]
EC50: 0.172 µM

COc1cc(-c2nccc(-c3cccc(-c4ccc(CNC[C@@H]5CCC(=O)N5)c(OC)n4)c3Cl)c2Cl)cc2c1CN(C[C@@H]1CCC(=O)N1)CC2 [Cmpd 6, (S)-5-((((6-(2-chloro-3-(3-chloro-2-(8-methoxy-2-(((S)-5-oxopyrrolidin-2-yl)methyl)-1,2,3,4-tetrahydroisoquinolin-6-yl)pyridin-4-yl)phenyl)-2-methoxypyridin-3-yl)methyl)amino)methyl)pyrrolidin-2-one]
EC50: 0.0223 µM

COc1cc(-c2nccc(-c3cccc(-c4ccc(CNC[C@@H]5CCC(=O)N5)c(OC)n4)c3Cl)c2Cl)cc2c1CNCC2 [Cmpd 7, (S)-5-((((6-(2-chloro-3-(3-chloro-2-(8-methoxy-1,2,3,4-tetrahydroisoquinolin-6-yl)pyridin-4-yl)phenyl)-2-methoxypyridin-3-yl)methyl)amino)methyl)pyrrolidin-2-one]
EC50: 0.0535 µM

COc1cc(-c2nccc(-c3cccc(-c4ccc(CNC[C@@H]5CCC(=O)N5)c(OC)n4)c3Cl)c2Cl)ccc1CNC[C@@H]1CCC(=O)N1 [Cmpd 8, (S)-5-((((6-(2-chloro-3-(3-chloro-2-(3-methoxy-4-(((((S)-5-oxopyrrolidin-2-yl)methyl)amino)methyl)phenyl)pyridin-4-yl)phenyl)-2-methoxypyridin-3-yl)methyl)amino)methyl)pyrrolidin-2-one]
EC50: 0.015 µM

COc1cc(-c2nccc(-c3cccc(-c4ccc(CNC[C@@H]5CCC(=O)N5)c(OC)n4)c3Cl)c2Cl)cc(F)c1CNC[C@@H]1CCC(=O)N1 [Cmpd 10, (S)-5-((((6-(2-chloro-3-(3-chloro-2-(3-fluoro-5-methoxy-4-(((((S)-5-oxopyrrolidin-2-yl)methyl)amino)methyl)phenyl)pyridin-4-yl)phenyl)-2-methoxypyridin-3-yl)methyl)amino)methyl)pyrrolidin-2-one]
EC50: 0.0209 µM

COc1nc(-c2cccc(-c3ccnc(-c4ccc5c(CNC[C@@H]6CCC(=O)N6)cn(C)c5c4)c3Cl)c2Cl)ccc1CNC[C@@H]1CCC(=O)N1 [Cmpd 11, (S)-5-((((6-(2-chloro-3-(3-chloro-2-(1-methyl-3-(((((S)-5-oxopyrrolidin-2-yl)methyl)amino)methyl)-1H-indol-6-yl)pyridin-4-yl)phenyl)-2-methoxypyridin-3-yl)methyl)amino)methyl)pyrrolidin-2-one]
EC50: 0.084 µM

COc1nc(-c2cccc(-c3ccnc(-c4cnc5c(CNC[C@@H]6CCC(=O)N6)cn(C)c5c4)c3Cl)c2Cl)ccc1CNC[C@@H]1CCC(=O)N1 [Cmpd 13, (S)-5-((((6-(2-chloro-3-(3-chloro-2-(1-methyl-3-(((((S)-5-oxopyrrolidin-2-yl)methyl)amino)methyl)-1H-pyrrolo[3,2-b]pyridin-6-yl)pyridin-4-yl)phenyl)-2-methoxypyridin-3-yl)methyl)amino)methyl)pyrrolidin-2-one]
EC50: 0.0777 µM

COc1nc(-c2cccc(-c3ccnc(-c4ccc5c(c4)N(C)CCN(C[C@@H]4CCC(=O)N4)C5)c3Cl)c2Cl)ccc1CNC[C@@H]1CCC(=O)N1 [Cmpd 19, (S)-5-((((6-(2-chloro-3-(3-chloro-2-(1-methyl-4-(((S)-5-oxopyrrolidin-2-yl)methyl)-2,3,4,5-tetrahydro-1H-benzo[e][1,4]diazepin-8-yl)pyridin-4-yl)phenyl)-2-methoxypyridin-3-yl)methyl)amino)methyl)pyrrolidin-2-one]
EC50: 0.0614 µM

COc1cc(-c2nccc(-c3cccc(-c4cnc(CNC[C@@H]5CCC(=O)N5)c(OC)n4)c3Cl)c2Cl)ccc1CNC[C@@H]1CCC(=O)N1 [Cmpd 20, (S)-5-((((5-(2-chloro-3-(3-chloro-2-(3-methoxy-4-(((((S)-5-oxopyrrolidin-2-yl)methyl)amino)methyl)phenyl)pyridin-4-yl)phenyl)-3-methoxypyrazin-2-yl)methyl)amino)methyl)pyrrolidin-2-one]
EC50: 0.0223 µM

COc1cc(-c2nccc(-c3cccc(-c4ccc(CNC[C@@H]5CCC(=O)N5)c(OC)n4)c3Cl)c2Cl)cc2c1CN(C[C@@H](C)O)CC2 [Cmpd 27, (S)-5-((((6-(2-chloro-3-(3-chloro-2-(2-((R)-2-hydroxypropyl)-8-methoxy-1,2,3,4-tetrahydroisoquinolin-6-yl)pyridin-4-yl)phenyl)-2-methoxypyridin-3-yl)methyl)amino)methyl)pyrrolidin-2-one]
EC50: 0.0251 µM

COc1cc(-c2nccc(-c3cccc(-c4cc(Cl)c(CNC[C@@H]5CCC(=O)N5)c(OC)n4)c3Cl)c2Cl)cc2c1CN(C[C@@H]1CCC(=O)N1)CC2 [Cmpd 37, (S)-5-((6-(3-chloro-4-(2-chloro-3-(4-chloro-6-methoxy-5-(((((S)-5-oxopyrrolidin-2-yl)methyl)amino)methyl)pyridin-2-yl)phenyl)pyridin-2-yl)-8-methoxy-3,4-dihydroisoquinolin-2(1H)-yl)methyl)pyrrolidin-2-one]
EC50: 0.0256 µM

COc1cc(-c2nccc(-c3cccc(-c4ccc(CNC[C@@H]5CCC(=O)N5)c(OC)n4)c3Cl)c2Cl)cc2c1CCN(C[C@H](C)O)C2 [Cmpd 44, (S)-5-((((6-(2-chloro-3-(3-chloro-2-(2-((S)-2-hydroxypropyl)-5-methoxy-1,2,3,4-tetrahydroisoquinolin-7-yl)pyridin-4-yl)phenyl)-2-methoxypyridin-3-yl)methyl)amino)methyl)pyrrolidin-2-one]
EC50: 0.0541 µM

COc1cc(-c2nccc(-c3cccc(-c4ccc(CNC[C@@H]5CCC(=O)N5)c(OC)n4)c3Cl)c2Cl)cc2c1CCN(CC(C)(C)O)C2 [Cmpd 45, (S)-5-((((6-(2-chloro-3-(3-chloro-2-(2-(2-hydroxy-2-methylpropyl)-5-methoxy-1,2,3,4-tetrahydroisoquinolin-7-yl)pyridin-4-yl)phenyl)-2-methoxypyridin-3-yl)methyl)amino)methyl)pyrrolidin-2-one]
EC50: 0.892 µM

COc1nc(-c2cccc(-c3ccnc(-c4cc(F)c5c(c4)CCN(CC(C)(C)O)C5)c3Cl)c2Cl)ccc1CNC[C@@H]1CCC(=O)N1 [Cmpd 46, (S)-5-((((6-(2-chloro-3-(3-chloro-2-(8-fluoro-2-(2-hydroxy-2-methylpropyl)-1,2,3,4-tetrahydroisoquinolin-6-yl)pyridin-4-yl)phenyl)-2-methoxypyridin-3-yl)methyl)amino)methyl)pyrrolidin-2-one]
EC50: 0.171 µM

COc1nc(-c2cccc(-c3ccnc(-c4cc(F)c5c(c4)CN(CC(C)(C)O)CC5)c3Cl)c2Cl)ccc1CNC[C@@H]1CCC(=O)N1 [Cmpd 47, (S)-5-((((6-(2-chloro-3-(3-chloro-2-(5-fluoro-2-(2-hydroxy-2-methylpropyl)-1,2,3,4-tetrahydroisoquinolin-7-yl)pyridin-4-yl)phenyl)-2-methoxypyridin-3-yl)methyl)amino)methyl)pyrrolidin-2-one]
EC50: 10 µM

COc1cc(-c2nccc(-c3cccc(-c4ccc(CNC[C@@H]5CCC(=O)N5)c(OC)n4)c3Cl)c2Cl)cc2c1CN(CCC(C)(C)O)CC2 [Cmpd 49, (S)-5-((((6-(2-chloro-3-(3-chloro-2-(2-(3-hydroxy-3-methylbutyl)-8-methoxy-1,2,3,4-tetrahydroisoquinolin-6-yl)pyridin-4-yl)phenyl)-2-methoxypyridin-3-yl)methyl)amino)methyl)pyrrolidin-2-one]
EC50: 0.037 µM

COc1cc(-c2nccc(-c3cccc(-c4ccc(CNC[C@@H]5CCC(=O)N5)c(OC)n4)c3Cl)c2Cl)cc2c1CN(C[C@H](C)O)CC2 [Cmpd 50, (S)-5-((((6-(2-chloro-3-(3-chloro-2-(2-((S)-2-hydroxypropyl)-8-methoxy-1,2,3,4-tetrahydroisoquinolin-6-yl)pyridin-4-yl)phenyl)-2-methoxypyridin-3-yl)methyl)amino)methyl)pyrrolidin-2-one]
EC50: 0.0291 µM

COc1cc(-c2nccc(-c3cccc(-c4ccc(CNC[C@@H]5CCC(=O)N5)c(OC)n4)c3Cl)c2Cl)cc2c1CN(CCC1(O)CCC1)CC2 [Cmpd 51, (S)-5-((((6-(2-chloro-3-(3-chloro-2-(2-(2-(1-hydroxycyclobutyl)ethyl)-8-methoxy-1,2,3,4-tetrahydroisoquinolin-6-yl)pyridin-4-yl)phenyl)-2-methoxypyridin-3-yl)methyl)amino)methyl)pyrrolidin-2-one]
EC50: 0.0745 µM
